For one experiment, the target named is His-Brd4(44-477) (Homo sapiens (Human), UniProt O60885). Briefly: TR-FRET in-vitro binding assay for BRD4. Particulars: biochemical. The gist of the method:
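Bromodomain protein (45 nM in its addition solution) and tetra-acetylated histone H4 peptide (AcK5/8/12/16; 60 nM in its addition solution) were incubated with compounds for 35 min at 30 °C in 50 mM HEPES pH 7.5, 50 mM NaCl, 0.005% Tween20, 0.1% BSA. Eu-anti-His6 plus streptavidin-allophycocyanin detection followed, with TR-FRET read-out.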

Experiment [1] has as its target His-CREBBP (1081-1197) bromodomain (Homo sapiens (Human), UniProt Q92793). Briefly: AlphaScreen in-vitro binding assay for CREBBP. Particulars: biochemical. In a few lines:
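Ni-chelate acceptor and streptavidin donor beads (45 µg/mL each, in 50 mM HEPES pH 7.5, 150 mM NaCl, 0.02% BSA) were then added for 60 min at room temperature. IC50 came from 8-point non-linear regression.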

For another experiment, the system named is MV-4-11 cells. Briefly: Cell growth inhibition assay (CellTiter-Glo), MV-4-11. The class given is cell-based. Particulars: Homo sapiens, MV4-11, read-out: MV-4-11 TGI. In a few lines:
(§1)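 Luminescent ATP quantification served as the viability read-out following incubation at 37° C. under 5% CO2. A day-0 reference plate allowed scaling from −100% (medium) to 100% (0.1% DMSO vehicle), with IC50 and TGI fitted by a four-parameter model.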

For a further experiment, the system named is THP-1 cells. Put plainly: Cell growth inhibition assay (CellTiter-Glo), THP-1. The class given is cell-based. Particulars: Homo sapiens, read-out: THP-1 TGI. In a few lines: as §1
Another experiment has as its system K-562 cells. Put plainly: Cell growth inhibition assay (CellTiter-Glo), K-562. The class given is cell-based, human. The following applies: Homo sapiens, K562, read-out: K-562 TGI. In a few lines:
as §1

The text below walks through data of patent US8975417B2, “Pyrazolopyrrolidine derivatives and their use in the treatment of disease” (Novartis AG, priority 2013, dated 2015).

Structures are written as SMILES.

His-CREBBP (1081-1197) bromodomain, sequence (Q92793 1081-1197): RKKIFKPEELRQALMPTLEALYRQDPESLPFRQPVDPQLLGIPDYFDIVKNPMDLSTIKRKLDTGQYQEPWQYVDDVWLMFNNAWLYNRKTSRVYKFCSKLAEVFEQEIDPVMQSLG

As for `Cc1cc(N2C(=O)c3c(c(C4CC4)nn3-c3ccnn3C)C2c2ccc(Cl)cc2)cn2c(C)nnc12` (centres unmarked) [Example 117, 4-(4-chlorophenyl)-3-cyclopropyl-5-(3,8-dimethyl-[1,2,4]triazolo[4,3-a]pyridin-6-yl)-1-(1-methyl-1H-pyrazol-5-yl)-4,5-dihydropyrrolo[3,4-c]pyrazol-6(1H)-one], the IC50 is 39 nM at His-Brd4(44-477) and above 37000 nM in experiment [1]. Further, the values for the IC (total growth inhibition) with MV-4-11 cells, in the experiment with THP-1 cells and in the experiment with K-562 cells were 0.0391 µM, 0.0671 µM and above 10 µM, respectively.
On to `Cc1cc(N2C(=O)c3nn(C4CNC4)c(C)c3C2c2ccc(Cl)cc2)cn2c(C)nnc12` (centres unmarked) [Example 152, 2-(azetidin-3-yl)-4-(4-chlorophenyl)-5-(3,8-dimethyl-[1,2,4]triazolo[4,3-a]pyridin-6-yl)-3-methyl-4,5-dihydropyrrolo[3,4-c]pyrazol-6(2H)-one], for which the IC50 at His-Brd4(44-477) is 78 nM; in experiment [1] it was 3100 nM. The values for the IC (total growth inhibition) in the experiment on MV-4-11 cells, in the experiment with THP-1 cells and in the experiment on K-562 cells were 0.8 µM, 4 µM and above 10 µM, respectively.
Regarding `Cc1nn(-c2ccnn2C)c2c1[C@@H](c1ccc(Cl)cc1)N(c1cc(C)c3nnc(C)n3c1)C2=O` [Example 125, (R)-4-(4-chlorophenyl)-5-(3,8-dimethyl-[1,2,4]triazolo[4,3-a]pyridin-6-yl)-3-methyl-1-(1-methyl-1H-pyrazol-5-yl)-4,5-dihydropyrrolo[3,4-c]pyrazol-6(1H)-one], the IC50 at His-Brd4(44-477) is 25 nM; in experiment [1], 21000 nM. Further, the IC (total growth inhibition) in the experiment with MV-4-11 cells was 0.0399 µM; in the experiment on THP-1 cells, 0.0473 µM; in the experiment with K-562 cells it was above 10 µM.
With `Cc1nn(-c2ccnn2C)c2c1[C@H](c1ccc(Cl)cc1)N(c1cc(C)c(=O)n(C)c1)C2=O` [Example 121, (S)-4-(4-chlorophenyl)-5-(1,5-dimethyl-6-oxo-1,6-dihydropyridin-3-yl)-3-methyl-1-(1-methyl-1H-pyrazol-5-yl)-4,5-dihydropyrrolo[3,4-c]pyrazol-6(1H)-one], the values for the IC50 (at His-Brd4(44-477); in experiment [1]) were 4000 nM and above 37000 nM, respectively. The IC (total growth inhibition) in the experiment with MV-4-11 cells was 1.23 µM; with THP-1 cells, 5.03 µM; in the experiment on K-562 cells it was above 10 µM.
With `Cc1nn(C2CC2)c2c1C(c1ccc(Cl)cc1)N(c1cc(C)c3nnn(C)c3n1)C2=O` (centres unmarked) [Example 110, 4-(4-chlorophenyl)-1-cyclopropyl-5-(3,7-dimethyl-3H-[1,2,3]triazolo[4,5-b]pyridin-5-yl)-3-methyl-4,5-dihydropyrrolo[3,4-c]pyrazol-6(1H)-one], the IC50 on His-Brd4(44-477) is 12 nM; in experiment [1], above 37000 nM. The results for the IC (total growth inhibition) in the experiment with MV-4-11 cells, in the experiment on THP-1 cells and in the experiment with K-562 cells were 0.0102 µM, 0.0198 µM and above 10 µM, respectively.
For `COc1c2c(nn1C)C(=O)N(c1cc(C)c(=O)n(C)c1)C2c1ccc(Cl)cc1` (centres unmarked) [Example 77, 4-(4-chlorophenyl)-5-(1,5-dimethyl-6-oxo-1,6-dihydropyridin-3-yl)-3-methoxy-2-methyl-4,5-dihydropyrrolo[3,4-c]pyrazol-6(2H)-one], in that order: 130 nM, 1900 nM, 0.132 µM, 0.37 µM and above 10 µM.
In the case of `Cc1nn(C(C)C)c2c1[C@@H](c1ccc(Cl)cc1)N(c1cc(C)c(=O)n(C)c1)C2=O` [Example 104, (R)-4-(4-chlorophenyl)-5-(1,5-dimethyl-6-oxo-1,6-dihydropyridin-3-yl)-1-isopropyl-3-methyl-4,5-dihydropyrrolo[3,4-c]pyrazol-6(1H)-one], the IC50 on His-Brd4(44-477) stood at 13 nM; in experiment [1], 1200 nM. Besides, the IC (total growth inhibition) in the experiment with MV-4-11 cells was 0.0191 µM; in the experiment on THP-1 cells it was 0.045 µM; with K-562 cells, above 10 µM.
On the same counts, the results for `CCc1nn(CCOCC(F)(F)F)c2c1C(c1ccc(Cl)cc1)N(c1cc(OC)c3nnc(C)n3c1)C2=O` (centres unmarked) [Example 108, 4-(4-chlorophenyl)-3-ethyl-5-(8-methoxy-3-methyl-[1,2,4]triazolo[4,3-a]pyridin-6-yl)-1-(2-(2,2,2-trifluoroethoxy)ethyl)-4,5-dihydropyrrolo[3,4-c]pyrazol-6(1H)-one] are 140 nM, above 37000 nM, 0.445 µM, 0.832 µM and above 10 µM.
For `Cc1cc(N2C(=O)c3nn(C4CN(C)C4)c(C)c3C2c2ccc(Cl)cc2)cn2c(C)nnc12` (centres unmarked) [Example 158, 4-(4-chlorophenyl)-5-(3,8-dimethyl-[1,2,4]triazolo[4,3-a]pyridin-6-yl)-3-methyl-2-(1-methylazetidin-3-yl)-4,5-dihydropyrrolo[3,4-c]pyrazol-6(2H)-one], in that order: 82 nM, 3300 nM, 0.045 µM, 0.298 µM and above 10 µM.
For `COc1ncccc1-n1nc(C)c2c1C(=O)N(c1cc(C)c3nnn(C)c3n1)C2c1ccc(Cl)cc1` (centres unmarked) [Example 109, 4-(4-chlorophenyl)-5-(3,7-dimethyl-3H-[1,2,3]triazolo[4,5-b]pyridin-5-yl)-1-(2-methoxypyridin-3-yl)-3-methyl-4,5-dihydropyrrolo[3,4-c]pyrazol-6(1H)-one], in that order: 17 nM, above 37000 nM, 0.0381 µM, 0.0904 µM and above 10 µM.
Regarding `COc1ncc(-n2nc(C)c3c2C(=O)N(c2cc(C)c(=O)n(C)c2)[C@H]3c2ccc(Cl)cc2)c(OC)n1` [Example 99, (S)-4-(4-chlorophenyl)-1-(2,4-dimethoxypyrimidin-5-yl)-5-(1,5-dimethyl-6-oxo-1,6-dihydropyridin-3-yl)-3-methyl-4,5-dihydropyrrolo[3,4-c]pyrazol-6(1H)-one], the IC50 at His-Brd4(44-477) was 7800 nM; in experiment [1], above 37000 nM. Also, the IC (total growth inhibition) in the experiment with MV-4-11 cells is 4.31 µM; with THP-1 cells it was above 10 µM; in the experiment on K-562 cells, above 10 µM.
Consider `CCn1nc2c(c1C)C(c1ccc(Cl)cc1)N(c1cc(C)c3nnc(C)n3c1)C2=O` (centres unmarked) [Example 115, 4-(4-chlorophenyl)-5-(3,8-dimethyl-[1,2,4]triazolo[4,3-a]pyridin-6-yl)-2-ethyl-3-methyl-4,5-dihydropyrrolo[3,4-c]pyrazol-6(2H)-one], for which the IC50 on His-Brd4(44-477) was 43 nM; in experiment [1], 1200 nM. The IC (total growth inhibition) in the experiment with MV-4-11 cells was 0.0482 µM; with THP-1 cells, 0.0712 µM; in the experiment on K-562 cells, above 10 µM.
For `Cc1nn(C2CN(C)C2)c2c1C(c1ccc(Cl)cc1)N(c1cc(C)c(=O)n(C)c1)C2=O` (centres unmarked) [Example 140, 4-(4-chlorophenyl)-5-(1,5-dimethyl-6-oxo-1,6-dihydropyridin-3-yl)-3-methyl-1-(1-methylazetidin-3-yl)-4,5-dihydropyrrolo[3,4-c]pyrazol-6(1H)-one], in that order: 320 nM, 15000 nM, 0.154 µM, 0.925 µM and above 10 µM.
For `COc1ncc(-n2nc(C)c3c2C(=O)N(c2cc(C)c(=O)n(C)c2)[C@@H]3c2ccc(Cl)cc2)c(OC)n1` [Example 100, (R)-4-(4-chlorophenyl)-1-(2,4-dimethoxypyrimidin-5-yl)-5-(1,5-dimethyl-6-oxo-1,6-dihydropyridin-3-yl)-3-methyl-4,5-dihydropyrrolo[3,4-c]pyrazol-6(1H)-one], the IC50 was 25 nM at His-Brd4(44-477) and 4200 nM in experiment [1]. The results for the IC (total growth inhibition) in the experiment on MV-4-11 cells, in the experiment on THP-1 cells and with K-562 cells were 0.0582 µM, 0.153 µM and above 10 µM, respectively.
Consider `COc1ncccc1-n1nc(C)c2c1C(=O)N(c1cc(C)c(=O)n(C)c1)[C@@H]2c1ccc(Cl)cc1` [Example 128, (R)-4-(4-chlorophenyl)-5-(1,5-dimethyl-6-oxo-1,6-dihydropyridin-3-yl)-1-(2-methoxypyridin-3-yl)-3-methyl-4,5-dihydropyrrolo[3,4-c]pyrazol-6(1H)-one], for which the IC50 stood at 36 nM on His-Brd4(44-477) and 3700 nM in experiment [1]. Also, the IC (total growth inhibition) with MV-4-11 cells is 0.0734 µM; with THP-1 cells it was 0.107 µM; with K-562 cells, above 10 µM.
For `CCc1nn(C2CC2)c2c1[C@@H](c1ccc(Cl)cc1)N(c1cc(C)c3nnc(C)n3c1)C2=O` [Example 107, (R)-4-(4-chlorophenyl)-1-cyclopropyl-5-(3,8-dimethyl-[1,2,4]triazolo[4,3-a]pyridin-6-yl)-3-ethyl-4,5-dihydropyrrolo[3,4-c]pyrazol-6(1H)-one], in that order: below 11 nM, 6900 nM, 0.0113 µM, 0.0199 µM and above 10 µM.
